ChEMBL document CHEMBL5257018, “Novel Strategies for the Treatment of Pseudomonas aeruginosa Infections” (J Med Chem, 2016)
≈ marks a conversion by molar mass, not a printed value. Blank lines part the entries; values can stand above or below the molecule they belong to.

Columns and labels:
[1] = molecular target: Elastase (Pseudomonas aeruginosa (strain ATCC 15692 / PAO1 / 1C / PRS 101 / LMG12228)) (UniProt P14756); assay: Inhibition of Pseudomonas aeruginosa PAO1 elastase at 200 uM relative to control
Elastase (Pseudomonas aeruginosa (strain ATCC 15692 / PAO1 / 1C / PRS 101 / LMG12228)), sequence (P14756 198-498 limits assumed): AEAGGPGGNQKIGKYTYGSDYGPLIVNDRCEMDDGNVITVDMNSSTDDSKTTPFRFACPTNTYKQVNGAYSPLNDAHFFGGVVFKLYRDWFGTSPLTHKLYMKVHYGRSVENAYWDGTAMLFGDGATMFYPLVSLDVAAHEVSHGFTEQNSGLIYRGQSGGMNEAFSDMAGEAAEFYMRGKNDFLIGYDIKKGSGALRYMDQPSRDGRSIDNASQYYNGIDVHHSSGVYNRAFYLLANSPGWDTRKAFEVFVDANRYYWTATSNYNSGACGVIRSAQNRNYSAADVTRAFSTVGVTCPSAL

[2] = system: Pseudomonas aeruginosa; assay: Inhibition of Pseudomonas aeruginosa PAO1 Pyocyanin at 200 uM relative to control
[3] = system: Pseudomonas aeruginosa; assay: Antagonist activity at Pseudomonas aeruginosa MvfR at 15 uM relative to control; set-up: scale not given: the % may be the effect or the level left; conditions: filed as antagonist
[4] = molecular target: T1, Acyl-homoserine lactone acylase PvdQ (Pseudomonas aeruginosa (strain LESB58), UniProt Q9I194); assay: Inhibition of Pseudomonas aeruginosa ATCC 15692 pvdQ measured after 5 mins
T1 sequence (Q9I194 whole entry): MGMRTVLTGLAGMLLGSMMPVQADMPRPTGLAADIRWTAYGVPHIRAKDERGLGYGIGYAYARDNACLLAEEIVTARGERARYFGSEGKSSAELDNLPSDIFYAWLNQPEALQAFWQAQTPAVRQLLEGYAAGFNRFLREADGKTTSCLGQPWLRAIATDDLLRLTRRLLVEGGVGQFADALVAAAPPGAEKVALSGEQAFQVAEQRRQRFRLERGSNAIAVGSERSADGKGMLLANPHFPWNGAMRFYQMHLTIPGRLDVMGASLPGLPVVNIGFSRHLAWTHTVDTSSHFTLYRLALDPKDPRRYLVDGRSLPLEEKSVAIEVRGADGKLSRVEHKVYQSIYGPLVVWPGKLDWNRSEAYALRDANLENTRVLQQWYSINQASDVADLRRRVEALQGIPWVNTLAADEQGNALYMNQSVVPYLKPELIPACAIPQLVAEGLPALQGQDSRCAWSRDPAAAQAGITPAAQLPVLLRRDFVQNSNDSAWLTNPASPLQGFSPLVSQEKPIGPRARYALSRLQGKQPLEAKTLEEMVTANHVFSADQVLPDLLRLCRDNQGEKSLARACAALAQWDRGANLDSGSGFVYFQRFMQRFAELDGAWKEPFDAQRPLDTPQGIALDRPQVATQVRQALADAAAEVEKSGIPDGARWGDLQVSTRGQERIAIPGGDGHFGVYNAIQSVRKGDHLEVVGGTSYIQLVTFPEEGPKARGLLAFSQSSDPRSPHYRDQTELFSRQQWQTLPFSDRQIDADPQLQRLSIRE

[5] = molecular target: T1, Acyl-homoserine lactone acylase PvdQ; assay: Inhibition of wild type Pseudomonas aeruginosa PAO1 pvdQ
[6] = molecular target: T1, Acyl-homoserine lactone acylase PvdQ; assay: Competitive inhibition of Pseudomonas aeruginosa ATCC 15692 pvdQ
[7] = system: Pseudomonas aeruginosa; assay: Antibiofilm activity against Pseudomonas aeruginosa PAO1 assessed as inhibition of biofilm formation; assay type: functional, organism-based
[8] = system: Pseudomonas aeruginosa; assay: Antibiofilm activity against Pseudomonas aeruginosa PA14 assessed as inhibition of biofilm formation; assay type: functional, organism-based
[9] = molecular target: T1, Acyl-homoserine lactone acylase PvdQ; assay: Inhibition of Pseudomonas aeruginosa ATCC 15692 pvdQ
[10] = molecular target: T1, Acyl-homoserine lactone acylase PvdQ; assay: Inhibition of Pseudomonas aeruginosa ATCC 15692 pvdQ incubated for 4 hrs
[11] = Inhibition of bacterial FabH; set-up: species or system Bacteria
[12] = molecular target: T2, PA-I galactophilic lectin (Pseudomonas aeruginosa (strain ATCC 15692 / PAO1 / 1C / PRS 101 / LMG12228)) (UniProt Q05097); assay: Binding affinity to Pseudomonas aeruginosa PAO1 LecA assessed as dissociation constant
T2 sequence (whole entry): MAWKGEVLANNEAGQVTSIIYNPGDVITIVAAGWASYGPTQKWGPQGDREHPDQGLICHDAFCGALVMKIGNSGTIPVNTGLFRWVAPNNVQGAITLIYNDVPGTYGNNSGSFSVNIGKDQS

[13] = system: Pseudomonas aeruginosa; assay: Antibacterial activity against multidrug resistant Pseudomonas aeruginosa assessed as reduction in bacterial growth; assay type: functional
[14] = molecular target: T3, Elastase (Pseudomonas aeruginosa (strain ATCC 15692 / PAO1 / 1C / PRS 101 / LMG12228), UniProt P14756); assay: Inhibition of Pseudomonas aeruginosa LasB elastase using aminobenzoyl-Ala-Gly-Leu-Ala-p-nitro-benzyl-amide as substrate b microtiter-based fluorimetric assay
T3 sequence (P14756 whole entry): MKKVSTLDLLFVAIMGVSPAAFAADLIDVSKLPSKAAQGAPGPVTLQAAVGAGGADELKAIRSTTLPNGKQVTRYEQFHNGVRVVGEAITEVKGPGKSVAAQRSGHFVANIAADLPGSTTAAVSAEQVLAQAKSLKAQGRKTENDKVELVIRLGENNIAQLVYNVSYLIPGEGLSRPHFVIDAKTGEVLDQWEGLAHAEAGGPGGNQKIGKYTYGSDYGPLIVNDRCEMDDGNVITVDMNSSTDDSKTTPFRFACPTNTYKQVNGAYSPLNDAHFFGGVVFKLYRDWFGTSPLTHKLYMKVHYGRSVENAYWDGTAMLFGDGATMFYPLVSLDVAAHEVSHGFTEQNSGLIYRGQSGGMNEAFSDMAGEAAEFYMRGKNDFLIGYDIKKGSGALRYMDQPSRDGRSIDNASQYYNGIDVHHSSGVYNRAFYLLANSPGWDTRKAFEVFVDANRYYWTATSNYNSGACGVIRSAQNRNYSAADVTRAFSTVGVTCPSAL

[15] = molecular target: T3, Elastase; assay: Inhibition of Pseudomonas aeruginosa LasB elastase
[16] = Inhibition of Pseudomonas aeruginosa FabI
[17] = system: Pseudomonas aeruginosa; assay: Antibacterial activity against Pseudomonas aeruginosa PAO1 infected in Caenorhabditis elegans worms assessed as worms survival rate at 880 uM measured after 72 hrs; assay type: functional
[18] = system: Pseudomonas aeruginosa; assay: Inhibition of Pseudomonas aeruginosa PAO1 Pyocyanin at 440 uM relative to control
[19] = molecular target: T4, Transcriptional activator protein LasR (Pseudomonas aeruginosa (strain ATCC 15692 / PAO1 / 1C / PRS 101 / LMG12228)) (UniProt P25084); assay: Inhibition of Pseudomonas aeruginosa PAO1 LasR at 440 uM relative to control
T4 sequence (whole entry): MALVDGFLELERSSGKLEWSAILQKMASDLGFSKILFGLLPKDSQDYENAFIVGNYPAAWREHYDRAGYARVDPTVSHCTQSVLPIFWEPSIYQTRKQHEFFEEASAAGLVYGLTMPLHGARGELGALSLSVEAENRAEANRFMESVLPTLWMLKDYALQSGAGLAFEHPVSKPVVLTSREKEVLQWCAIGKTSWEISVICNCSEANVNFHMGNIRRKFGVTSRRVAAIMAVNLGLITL

[20] = organism: Homo sapiens; assay: Inhibition of elastase (unknown origin) at 10 uM relative to control
[21] = system: Pseudomonas aeruginosa; assay: Antimicrobial activity against Pseudomonas aeruginosa assessed as reduction in bacterial growth; assay type: functional, organism-based
[22] = system: Pseudomonas aeruginosa; assay: Antimicrobial activity against Pseudomonas aeruginosa PA14 assessed as reduction in bacterial growth; assay type: functional
[23] = system: Pseudomonas aeruginosa; assay: Antibiofilm activity against Pseudomonas aeruginosa PA14 assessed as inhibition of biofilm formation at 100 uM; assay type: functional; set-up: scale not given: the % may be the effect or the level left
[24] = Binding affinity to D-galactose (unknown origin) assessed as dissociation constant
[25] = system: Pseudomonas aeruginosa; assay: Inhibition of Pseudomonas aeruginosa PAO1 Pyocyanin at 100 uM relative to control
[26] = molecular target: T5, Hexosaminidase D (Homo sapiens, UniProt Q8WVB3); assay: Inhibition of human recombinant beta-hexosaminidase
T5 sequence (Q8WVB3 whole entry): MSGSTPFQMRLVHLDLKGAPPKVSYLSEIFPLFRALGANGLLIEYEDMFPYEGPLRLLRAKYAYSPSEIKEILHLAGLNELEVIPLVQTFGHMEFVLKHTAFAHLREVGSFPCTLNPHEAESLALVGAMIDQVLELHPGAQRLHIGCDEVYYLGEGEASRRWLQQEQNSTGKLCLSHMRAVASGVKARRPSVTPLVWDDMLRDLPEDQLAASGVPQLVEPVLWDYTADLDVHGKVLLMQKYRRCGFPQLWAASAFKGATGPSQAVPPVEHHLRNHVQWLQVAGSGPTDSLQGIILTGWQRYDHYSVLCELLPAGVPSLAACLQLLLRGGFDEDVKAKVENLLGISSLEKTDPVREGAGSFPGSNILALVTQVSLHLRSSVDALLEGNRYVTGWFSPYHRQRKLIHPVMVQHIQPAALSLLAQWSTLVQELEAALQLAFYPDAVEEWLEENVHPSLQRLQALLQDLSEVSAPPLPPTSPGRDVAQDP

[27] = system: Pseudomonas aeruginosa; assay: Antibacterial activity against Pseudomonas aeruginosa PAO1 infected in Caenorhabditis elegans worms assessed as worms survival at 50 uM measured after 24 hrs; assay type: functional
[28] = system: Pseudomonas aeruginosa; assay: Inhibition of biofilm formation in Pseudomonas aeruginosa assessed as reduction in biofilm formation; assay type: functional, organism-based
[29] = system: Pseudomonas aeruginosa; assay: Antibiofilm activity against Pseudomonas aeruginosa assessed as reduction in biofilm formation at 100 uM; assay type: functional; set-up: scale not given: the % may be the effect or the level left
[30] = system: Pseudomonas aeruginosa; assay: Antibiofilm activity against Pseudomonas aeruginosa assessed as reduction in biofilm formation; assay type: functional, organism-based
[31] = system: Pseudomonas aeruginosa; assay: Antimicrobial activity against Pseudomonas aeruginosa infected in mouse pneumonia model administered twice a day measured after 48 hrs; assay type: functional
[32] = system: Pseudomonas aeruginosa; assay: Antibiofilm activity against Pseudomonas aeruginosa assessed as reduction in biofilm formation at 100 uM measured after 24 hrs; assay type: functional; set-up: scale not given: the % may be the effect or the level left
[33] = molecular target: Elastase (Pseudomonas aeruginosa (strain ATCC 15692 / PAO1 / 1C / PRS 101 / LMG12228)) (UniProt P14756); assay: Inhibition of Pseudomonas aeruginosa PAO1 elastase at 250 uM relative to control
[34] = system: Pseudomonas aeruginosa; assay: Inhibition of Pseudomonas aeruginosa PAO1 Rhamnolipid at 250 uM by spectrophotometrical analysis relative to control
[35] = system: Pseudomonas aeruginosa; assay: Inhibition of Pseudomonas aeruginosa PAO1 Pyocyanin at 250 uM relative to control
[36] = system: Pseudomonas aeruginosa; assay: Inhibition of biofilm formation in Pseudomonas aeruginosa PAO1 assessed as reduction in biofilm formation at 250 uM measured for 2 hrs by scanning confocal laser microscopic analysis; assay type: functional
[37] = Inhibition of elastase (unknown origin); set-up: species or system Homo sapiens
[38] = Antagonist activity at Pseudomonas aeruginosa MvfR
[39] = Inhibition of quorum sensing system in Pseudomonas aeruginosa PAO1 assessed as decrease in pqsR expression by PCR analysis

Compound: N#CC(c1ccc(F)cc1)c1cccc(C(F)(F)F)n1 (stereo not drawn)
IC50 [4]: 1900 nM
IC50 [5]: 19 µM
Ki [6]: 0.19 nM

Compound: C=CCNc1ncnc2ccc(Br)cc12
IC50 [9]: 130 µM
IC50 [10]: < 20 nM

Compound: OC[C@H]1O[C@@H](OCc2cn([C@H]3[C@H](O)[C@@H](O)[C@H](c4cn([C@H]5[C@H](O)[C@@H](O)[C@H](n6cc([C@@H]7O[C@H](CO)[C@@H](n8cc(CO[C@@H]9O[C@H](CO)[C@H](O)[C@H](O)[C@H]9O)nn8)[C@H](O)[C@H]7O)nn6)O[C@@H]5CO)nn4)O[C@@H]3CO)nn2)[C@H](O)[C@@H](O)[C@H]1O
K [12]: 28 nM

Compound: CNc1cc(F)cc2c1[nH]c1nc(Sc3cnc(C)nc3)nc(N3C[C@H]4C[C@@H](N(C)C)[C@H]4C3)c12
MIC [13]: 2 µg/mL (≈ 4.18 µM)

Compound: Oc1cc(Cl)ccc1Oc1ccc(Cl)cc1Cl [TRICLOSAN]
IC50 [16]: 200 nM

Compound: O=C1CNC(=O)CN1 [DIKETOPIPERAZINE]
Activity [17]: 66%
inhibition [18]: 85%
inhibition [19]: 48%

Compound: CO[C@H](C(N)=O)[C@H](NC(=O)c1ccc(NC(=O)c2ccc([N+](=O)[O-])cc2)cc1)C(=O)Nc1ccc(C(=O)Nc2ccc(C(=O)Nc3ccc(C(=O)O)cc3OC(C)C)c(O)c2OC(C)C)cc1
MIC [21]: 1 µg/mL (≈ 1.09 µM)
MIC [22]: 3.4 µg/mL (≈ 3.7 µM)

Compound: CCCCCCS(=O)(=O)NCCCc1c[nH]c(N)n1
Activity [23]: 42%

Compound: O=C[C@H](O)[C@@H](O)[C@@H](O)[C@H](O)CO [GALACTOSE]
Kd [24]: 87.5 µM

Compound: C[C@@H](Oc1ccc(Cl)cc1Cl)C(=O)NCc1ccc2c(c1)OCO2
IC50 [26]: 12.5 µM

Compound: O=C(Nc1ccc(Nc2ccccc2)cc1)c1ccccc1
Activity [29]: 22%
IC50 [30]: 26 µM

Compound: COc1ccc(-c2ccn(CC[C@](C)(C(=O)NO)S(C)(=O)=O)c(=O)c2)c(F)c1
ED50 [31]: < 25 mg/kg

Compound: O=c1onc2n1-c1cc(Br)ccc1OC2
IC50 [9]: 65 µM
IC50 [10]: < 20 nM

Compound: COc1cc(/C=C2\S/C(=N\c3ccccc3)N(c3ccccc3)C2=O)cc(OC)c1O
IC50 [37]: 380 µM

Second part, led by results:

inhibition [1]: 63%
inhibition [2]: 93%
Compound: CCCCCCCCCC(=O)CC(=O)Nc1cccc(OC)c1

Activity [3]: 44%
Compound: CCCCCCCc1cc(=O)c2cc([N+](=O)[O-])ccc2[nH]1

IC50 [7]: 5.6 µM
IC50 [8]: 530 nM
Compound: C/C(=C\c1ccccc1)Cn1cc(CCCCCc2c[nH]c(N)n2)nn1

IC50 [11]: 35 µM
Compound: CCN(CC)S(=O)(=O)c1cccc(C(=O)Nc2cccc(O)c2C(=O)O)c1

Ki [14]: 41 nM
IC50 [15]: 6 µM
Compound: NC(=O)[C@H](Cc1ccc(O)cc1)NC(=O)[C@H](Cc1ccccc1)NC(=O)CS

IC50 [11]: 65 µM
Compound: CCN(CC)S(=O)(=O)c1cc(C(=O)Nc2ccccc2C(=O)O)ccc1Br

inhibition [20]: 50%
Compound: CCCCCCCCCC(=O)CC(=O)Nc1ccccc1O

inhibition [25]: 90%
Compound: CCCCCCCCCNC(=O)CC(=O)c1ccccc1

IC50 [28]: 8 µM
Compound: O=C(CCCOc1ccc(Br)cc1)NC1CCSC1=O (stereo not drawn)
Activity [27]: 23%

IC50 [30]: 0.046 µM
Compound: COc1ccc2[nH]c(SCc3ccc(C)cc3)nc2c1
Activity [32]: 50%

inhibition [33]: 77%
inhibition [34]: 87%
inhibition [35]: 64%
Compound: CCCCCCCCCC(=O)NC1CCCC1 [N-CYCLOPENTYLDECANAMIDE]
inhibition at 250 µM [36]: 100%

IC50 [38]: 2 nM
IC50 [39]: 2000 nM
Compound: CCCCCCCc1[nH]c2ccc([N+](=O)[O-])cc2c(=O)c1C(N)=O
